Results on 39 compounds are retold here after patent publication US20080085884A1, “Melanin Concentrating Hormone Receptor-1 Antagonist Pyridinones” (Pfizer Inc, priority 2006, published 2008).

pKi: −log10 of the molar value. Counter-ions that a name gives are not always drawn.

T1 sequence (Q99705 whole entry): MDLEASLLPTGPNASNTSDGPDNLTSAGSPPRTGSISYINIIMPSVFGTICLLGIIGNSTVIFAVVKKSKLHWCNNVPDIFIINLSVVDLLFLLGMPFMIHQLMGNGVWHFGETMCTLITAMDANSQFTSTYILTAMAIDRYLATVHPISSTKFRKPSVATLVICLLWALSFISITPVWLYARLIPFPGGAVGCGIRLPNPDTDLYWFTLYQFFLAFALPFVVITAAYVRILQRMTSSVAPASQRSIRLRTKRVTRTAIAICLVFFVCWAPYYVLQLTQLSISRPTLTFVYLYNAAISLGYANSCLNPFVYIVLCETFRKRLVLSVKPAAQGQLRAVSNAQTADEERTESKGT

One assay addresses T1, human MCHR1 (Homo sapiens, UniProt Q99705).
T1 construct: host or cells: CHO
As to the kind of experiment: Cyclic AMP assay (MCHR-1 functional antagonism). The note with it: CHO cells stably expressing human MCHR1; cAMP accumulation with 25 uM forskolin and 0.2 nM MCH, 90 min; Ki from IC50 by Cheng-Prusoff; read-out: MCHR-1 functional Ki. The class given is cell-based. The protocol: CHO cell lines stably expressing the human MCHR1 (Euroscreen, Brussels, Belgium) were maintained in DMEM containing Glutamax (Invitrogen, Carlsbad, Calif.), 10% FBS, 400 ug/ml Geneticin.
Cyclic AMP assays. CHO cells stably expressing the human MCHR1 receptors were collected and resuspended at a density of 4.0×10^6 cells/ml in F12 (Hams) media and seeded (20,000 cells per well) into 384-well, solid white Greiner assay plates. […] Cells were incubated at 37° C./5% CO2 for 90 minutes and cAMP accumulation subsequently determined by DiscoveRx Hithunter c-AMP II Assay kit (GE Healthcare, Buckinghamshire, UK) in accordance with manufactures instructions. Luminescence was measured on a LEADseaker imaging system (GE Healthcare, Buckinghamshire, UK). IC50 values were calculated from dose-response data fit using an in-house computer graphics and statistics program.
A general note: Changes in cAMP serve as a functional read-out for many G protein-coupled receptors.
As to `O=c1cc(OCc2ccccc2)ccn1-c1ccc(N2C[C@H]3CNC[C@H]3C2)nc1` [Example 8, 4-(Benzyloxy)-6′-[(3aR,6aS)-hexahydropyrrolo[3,4-c]pyrrol-2(1H)-yl]-2H-1,3′-bipyridin-2-one dihydrochloride], the pKi was 8.06. On to `O=c1cc(OCc2ccc(Cl)cc2)ccn1-c1ccc(N2CC[C@@H](O)C2)nc1` [Example 10, 4-[(4-Chlorobenzyl)oxy]-6′-[(3R)-3-hydroxypyrrolidin-1-yl]-2H-1,3′-bipyridin-2-one], for which the pKi was 7.37. The same measure, in the same setting: with `O=c1cc(OCc2ccccc2)ccn1-c1ccc(N2CC[C@@H](O)C2)nc1` [Example 11, 4-(Benzyloxy)-6′-[(3R)-3hydroxypyrrolidin-1-yl]-2H-1,3′-bipyridin-2-one] the figure was 7.01; with `CN(C(=O)OC(C)(C)C)[C@H]1CCN(c2ccc(-n3ccc(OCc4ccccc4)cc3=O)cn2)C1` [Example 12, tert-Butyl {(3S)-1-[4-(benzyloxy)-2-oxo-2H-1,3′-bipyridin-6′-yl]pyrrolidin-3-yl}methyl carbamate], 8.00; with `CN[C@H]1CCN(c2ccc(-n3ccc(OCc4ccccc4)cc3=O)cn2)C1` [Example 13, 4-(Benzyloxy)-6′-[(3S)-3-(methylamino)pyrrolidin-1-yl]-2H-1,3′-bipyridin-2-one dihydrochloride], 8.31. Still for that read-out and setting: to `CN[C@@H]1CCN(c2ccc(-n3ccc(OCc4ccccc4)cc3=O)cn2)C1` [Example 15, 4-(benzyloxy)-6′-[(3R)-3-(methylamino)pyrrolidin-1-yl]-2H-1,3′-bipyridin-2-one dihydrochloride] belongs 8.44.

With `O=c1cc(OCc2ccccc2)ccn1-c1ccc(N2CC[C@H](O)C2)nc1` [Example 16, 4-(benzyloxy)-6′-[(3S)-3-hydroxypyrrolidin-1-yl]-2H-1,3′-bipyridin-2-one], the negative-log Ki (pKi) is 6.88. In the case of `CCN[C@@H]1CCN(c2ccc(-n3ccc(OCc4ccccc4)cc3=O)cn2)C1` [Example 19, 4-(Benzyloxy)-6′-[(3R)-3-(ethylamino)pyrrolidin-1-yl]-2H-1,3′-bipyridin-2-one], the negative-log Ki (pKi) was 8.17. On the same count and under the same terms, with `CC(=O)N(C)[C@H]1CCN(c2ccc(-n3ccc(OCc4ccccc4)cc3=O)cn2)C1` [Example 20, N-{(3S)-1-[4-(Benzyloxy)-2-oxo-2H-1,3′-bipyridin-6′-yl]pyrrolidin-3-yl}-N-methylacetamide] the figure was 7.82. Still for that read-out and setting: with `CCN(C(=O)OC(C)(C)C)[C@@H]1CCN(c2ccc(-n3ccc(OCc4ccccc4)cc3=O)cn2)C1` [Example 23a, tert-Butyl {(3R)-1-[4-(benzyloxy)-2-oxo-2H-1,3′-bipyridin-6′-yl]pyrrolidin-3-yl}ethylcarbamate] the figure was 7.80; with `CCN1C[C@@H]2CN(c3ccc(-n4ccc(OCc5ccccc5)cc4=O)cn3)C[C@@H]2C1` [Example 26, 4-(Benzyloxy)-6′-[(3aR,6aS)-5-ethylhexahydropyrrolo[3,4-c]pyrrol-2(1H)-yl]-2H-1,3′-bipyridin-2-one], 8.18; with `O=C1CCCN1[C@H]1CCN(c2ccc(-n3ccc(OCc4ccccc4)cc3=O)cn2)C1` [Example 27], 7.15. On to `O=c1cc(OCc2ccc(Cl)cc2)ccn1-c1ccc(N2CC[C@H](O)C2)nc1` [Example 29, 4-[(4-Chlorobenzyl)oxy]-6′-[(3S)-3-hydroxypyrrolidin-1-yl]-2H-1,3′-bipyridin-2-one], for which the pKi was 7.63. Same read-out and setting: to `O=C1CCN(c2ccc(-n3ccc(OCc4ccccc4)cc3=O)cn2)C1` [Example 30, 4-(Benzyloxy)-6′-(3-oxopyrrolidin-1-yl)-2H-1,3′-bipyridin-2-one] belongs 5.61; to `CN(C(=O)OC(C)(C)C)[C@H]1CCN(c2ccc(-n3ccc(CCc4ccccc4)cc3=O)cn2)C1` [Example 32, tert-Butyl methyl{(3S)-1-[2-oxo-4-(2-phenylethyl)-2H-1,3′-bipyridin-6′-yl]pyrrolidin-3-yl}-carbamate], 7.74; to `CN[C@@H]1CCN(c2ccc(-n3ccc(OCc4ccccc4)cc3=O)nc2)C1` [Example 33, 4-(Benzyloxy)-5′-[(3R)-3-(methylamino)pyrrolidin-1-yl]-2H-1,2′-bipyridin-2-one], 7.71. With `O=c1cc(OCc2ccccc2)ccn1-c1ccc(N2CCCC2)nc1` [Example 34, 4-(benzyloxy)-6′-pyrrolidin-1-yl-2H-1,3′-bipyridin-2-one], the negative logarithm of the Ki (pKi) is 7.27. Still for that read-out and setting: to `NC1CN(c2ccc(-n3ccc(OCc4ccc(F)cc4)cc3=O)cn2)C1` [Example 35] belongs 6.63. As to `CO[C@H]1CCN(c2ccc(-n3ccc(OCc4ccccc4)cc3=O)cn2)C1` [Example 36], the pKi was 7.12. On to `COC1CCN(c2ccc(-n3ccc(OCc4ccccc4)cc3=O)cn2)C1` (stereo not drawn) [Example 37], for which the pKi was 7.37.

`CCO[C@@H]1CCN(c2ccc(-n3ccc(OCc4ccccc4)cc3=O)cn2)C1` [Example 39]: the pKi is 7.38.

For `CCO[C@H]1CCN(c2ccc(-n3ccc(OCc4ccccc4)cc3=O)cn2)C1` [Example 40], the negative-log Ki (pKi) is 7.47. Consider `CCOC(=O)N[C@@H]1CCN(c2ccc(-n3ccc(OCc4ccccc4)cc3=O)cn2)C1` [Example 43], for which the negative-log Ki (pKi) is 6.44.

Turning to `CC1(O)CCN(c2ccc(-n3ccc(OCc4ccccc4)cc3=O)cn2)CC1` [Example 44], the pKi is 6.95. For `CC(C)C1(O)CCN(c2ccc(-n3ccc(OCc4ccccc4)cc3=O)cn2)C1` (stereo not drawn) [Example 45], the pKi is 6.57. As to `O=c1cc(OCc2ccccc2)ccn1-c1ccc(N2CCC(O)CC2)nc1` [Example 46], the negative logarithm of the Ki (pKi) is 6.67. As to `COC1CCN(c2ccc(-n3ccc(OCc4ccccc4)cc3=O)cn2)CC1` [Example 47], the negative logarithm of the Ki (pKi) is 7.24. In the case of `COC(=O)N1CCN(c2ccc(-n3ccc(OCc4ccccc4)cc3=O)cn2)CC1` [Example 48], the pKi was 6.15.

Take `N[C@H]1CCN(c2ccc(-n3ccc(OCc4ccccc4)cc3=O)cn2)C1` [Example 55, 6′-[(3S)-3-aminopyrrolidin-1-yl]-4-(benzyloxy)-2H-1,3′-bipyridin-2-one]: the pKi was 8.44.

As for `CN(C)[C@@H]1CCN(c2ccc(-n3ccc(OCc4ccccc4)cc3=O)cn2)C1` [Example 56], the negative-log Ki (pKi) is 8.43. Regarding `CN(C)[C@H]1CCN(c2ccc(-n3ccc(OCc4ccccc4)cc3=O)cn2)C1` [Example 57], the pKi is 8.44. With `CNC1CCN(c2ccc(-n3ccc(OCc4ccccc4)cc3=O)cn2)CC1` [Example 58], the negative logarithm of the Ki (pKi) is 7.54. The same measure, in the same setting: to `O=c1cc(OCc2ccccc2)ccn1-c1ccc(N2CCC2)nc1` [Example 59] belongs 7.17. Consider `CC(C)N(C)[C@H]1CCN(c2ccc(-n3ccc(OCc4ccccc4)cc3=O)cn2)C1` [Example 60], for which the pKi is 8.53.

Turning to `O=c1cc(OCc2ccccc2)ccn1-c1ccc(N2CCC(N3CCC3)C2)nc1` (stereo not drawn) [Example 61], the negative-log Ki (pKi) is 7.73. Still for that read-out and setting: with `O=c1cc(OCc2ccccc2)ccn1-c1ccc(N2CCC(N3CCCC3)C2)nc1` (stereo not drawn) [Example 63] the figure was 7.92; with `O=c1cc(OCc2ccccc2)ccn1-c1ccc(N2CC3CCC(C2)N3)nc1` [Example 69], 6.91; with `CC(C)C1CN(c2ccc(-n3ccc(OCc4ccccc4)cc3=O)cn2)CCN1` (stereo not drawn) [Example 70], 6.99.

The assay is the same for the next values; noted with them: MCHR-1 functional Ki (nM), CHO cells stably expressing human MCHR1; cAMP accumulation with 25 uM forskolin and 0.2 nM MCH, 90 min; Ki from IC50 by Cheng-Prusoff.
On to `N[C@@H]1CCN(c2ccc(-n3ccc(OCc4ccccc4)cc3=O)cn2)C1` [Example 54], for which the inhibition constant Ki came out at 5.91 nM.

A word on the pKi: it is the negative decadic logarithm of the Ki, by convention in mol/L. In general, Ki refers to the dissociation constant of the complex between target and ligand, obtained from inhibition or displacement.
